Measurements: US20160324881A1, “Neurokinin-1 Receptor Antagonists For Use In A Method Of Prevention Of Cancer” (priority 2013, published 2016)
Like-named read-outs stand apart in the source and are kept apart here.

Assays:
[1] = cited from earlier work
[2] = capsules; cited from earlier work
[3] = test system: MDA-MB-231 cells; experiment: Xenograft tumor model, preventive application, MDA-MB-231; conditions: aprepitant 100 mg/kg p.o., fosaprepitant 60 mg/kg i.v., 1x daily from day -2
Experimental: (§2) The ability of fosaprepitant and aprepitant to prevent tumor formation in xenograft models for breast cancer, lung cancer and colon cancer was investigated.
(§3) Monolayer MDA-MB-231 cells, HCT-116 cells and A549 cells, respectively, were grown in DMEM+10% FCS. The cells were cultured in a humidified atmosphere of 90% air and 10% carbon dioxide at 37° C. Media was routinely changed every 3 days. Confluent cultures were split 1:3 to 1:3 every 3-4 days using Trypsin/EDTA and seeded at a density of approximately 3-4×10^6 cells/15 cm^2+25 mL medium.
(§4) Female BALB/c nude (CAnN.Cg-Foxn1^nu/Crl) Mice (Charles River GmbH, Sulzfeld, Germany) aged 4-5 weeks at delivery and weighing approximately 15-18 g were kept under optimum hygienic conditions, air-conditioned with 10-15 air changes per hour, and continually monitored environment with target ranges for temperature 22±3° C. and for relative humidity 30-70%, 12 hours artificial fluorescent light/12 hours dark. Maximum 4 animals were kept per individual ventilated cage (IVC) and fed with a diet consisting of M-Zucht (ssniff Spezialdiáten GmbH) and autoclaved community tab water.
(§5) After an acclimatization period of 4 days (day −2) application of fosaprepitant, aprepitant and vehicle was started: Fosaprepitant was administered intravenously (i.v.) once daily for 20 days, and aprepitant was administered per oral gavage (p.o.) once daily for 20 days. Fosaprepitant was dissolved in 0.9% NaCl and 0.9% NaCl was used analogous to fosaprepitant as control (vehicle 1). As aprepitant is not water-soluble, it was provided as a suspension of ground EMEND® tablets in OraPlus® (Paddock Laboratories, Minneapolis, USA; contains: purified water, microcrystalline cellulose, carboxymethylcellulose sodium, xanthan gum, flavouring, citric acid, sodium phosphate, simethicone, methylparaben, and potassium sorbate, pH 4.2) and OraPlus® was used analogous to aprepitant as control (vehicle 2).
(§6) In the following, animal weights were measured (balance: Mettler Toledo PB602-L). Primary tumor sizes were measured by callipering (manual calliper, OMC Fontana). Tumor sizes were calculated according to the formula W^2×L/2 (L=length and W=the perpendicular width of the tumor, L>W).
(§7) Animal behavior and welfare was observed daily and tumor growth was recorded every two days by calliper measurement over a period of 30 days.

[4] = test system: HCT-116 cells; experiment: Xenograft tumor model, preventive application, HCT116; conditions: aprepitant 100 mg/kg p.o., fosaprepitant 60 mg/kg i.v., 1x daily from day -2
Experimental: as §2, §3, §4, §5, §6, §7

[5] = test system: brain tumors; conditions: background report; cited from earlier work
[6] = test system: HCT116 cells; experiment: Soft agar growth assay (Alamar Blue), HCT116; format: cell-based; conditions: Homo sapiens, HCT-116, 192 h
Experimental: (§8) Aprepitant (Biorbit) and fosaprepitant (IVEMEND®, MSD) were dissolved at a concentration of 100 mM in 100% DMSO (aprepitant) or in 0.9% NaCl (fosaprepitant). Actinomycin D was used as reference compound.
(§9) Stock solutions were diluted covering the final concentration range between 0 and 200 μM. The appropriate solvent controls were performed in parallel.
(§10) Compounds dissolved in DMSO (aprepitant as well as Actinomycin D) were diluted in 8 semilog steps in DMSO to obtain a dilution series with the 1000 fold final concentration.
(§11) Fosaprepitant was diluted in 8 semilog steps in 0.9% NaCl to obtain a dilution series with the 1000 fold final concentration.
(§12) Cancer cells stemming from established cancer cell lines (A549, HCT116, MDA-MB231) were cultured in DMEM containing 10% FCS and Penicillin/Streptomycin.
(§13) For each cell line 96 well suspension cell culture plates were prepared. 100 μL of the soft agar bottom layer (0.6% final concentration in complete medium) was poured and left to solidify. […]
(§14) Next day, compounds were added into the inner wells of the plate. […] Finally, the assays were developed using Alamar Blue and upon 3-5 h of incubation at 37° C. fluorescence intensity was determined (excitation: 560 nm; emission: 590 nm). […]

[7] = test system: A549 cells; experiment: Soft agar growth assay (Alamar Blue), A549; format: cell-based; conditions: Homo sapiens
Experimental: as §8, §9, §10, §11, §12, §13, §14

[8] = target: NK1 receptors (Homo sapiens, UniProt P25103); conditions: versus other receptors such as serotonin, dopamine, corticosteroid; estimated; cited from earlier work
[9] = test system: MDA-MB-231 cells (triple negative tumor cells); experiment: Example 5: preventive treatment of xenografted nude mice (FIG. 4); format: in vivo; conditions: MDA-MB-231 xenograft; fosaprepitant i.v. 60 mg/kg/d, aprepitant p.o. 100 mg/kg/d, once daily for 19 days from day -2
Experimental: (§1) After an acclimatization period, application of fosaprepitant, aprepitant and vehicle control was started (day −2): Fosaprepitant was administered intravenously (i.v.; 60 mg/kg/d) once daily for 19 days, and aprepitant was administered per oral gavage (p.o.; 100 mg/kg/d) once daily for 19 days. […] The tumor volume was measured and depicted as mm3 at the indicated time points.
as §1, with “FIG. 4: In vivo treatment of xenografted mice with fosaprepitant and aprepitant. After” for “After”

[10] = test system: MDA-MB231 cells; experiment: Soft agar growth assay (Alamar Blue), MDA-MB231; format: cell-based; conditions: Homo sapiens, MDA-MB-231, 264 h
Experimental: as §8, §9, §10, §11, §12, §13, §14

[11] = test system: A549 cells; experiment: Xenograft tumor model, preventive application, A549; conditions: aprepitant 100 mg/kg p.o., fosaprepitant 60 mg/kg i.v., 1x daily from day -2
Experimental: as §2, §3, §4, §5, §6, §7

[12] = MDA-MB-231, 10 days after tumor cell inoculation
[13] = MDA-MB-231, 20 days after tumor cell inoculation
[14] = MDA-MB-231, 30 days after tumor cell inoculation
[15] = HCT116, 10 days after tumor cell inoculation
[16] = HCT116, 20 days after tumor cell inoculation
[17] = HCT116, 30 days after tumor cell inoculation
[18] = A549, 10 days after tumor cell inoculation
[19] = A549, 20 days after tumor cell inoculation
[20] = A549, 30 days after tumor cell inoculation

NK1 receptors, sequence (P25103 whole entry): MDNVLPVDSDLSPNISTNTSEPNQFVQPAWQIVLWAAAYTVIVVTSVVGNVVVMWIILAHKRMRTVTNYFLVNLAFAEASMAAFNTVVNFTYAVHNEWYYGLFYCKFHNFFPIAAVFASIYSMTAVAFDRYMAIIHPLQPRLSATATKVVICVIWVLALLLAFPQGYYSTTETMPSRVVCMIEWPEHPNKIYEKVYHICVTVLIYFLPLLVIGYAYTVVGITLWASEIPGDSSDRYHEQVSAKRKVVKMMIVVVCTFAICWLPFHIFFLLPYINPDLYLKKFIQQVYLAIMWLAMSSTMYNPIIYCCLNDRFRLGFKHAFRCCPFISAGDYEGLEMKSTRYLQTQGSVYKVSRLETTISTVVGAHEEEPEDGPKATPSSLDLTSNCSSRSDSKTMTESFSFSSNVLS

SMILES | water solubility [1] | average oral bioavailability [2] | Tumor volume (mean) [3, 12] [mm^3] | Tumor volume (mean) [3, 13] [mm^3] | Tumor volume (mean) [3, 14] [mm^3] | Tumor volume (mean) [4, 15] [mm^3] | Tumor volume (mean) [4, 16] [mm^3] | Tumor volume (mean) [4, 17] [mm^3] | brain tumor growth [5] | IC50 ([6]; HCT116 (colon), soft agar growth, incubation time 8 days, read-out: IC50) [µM] | IC50 ([7]; 192 h, A549 (lung), soft agar growth, incubation time 8 days, read-out: IC50) [nM] | selectivity of NK1 receptors compared to other enzyme transporter, ion channels [8] | Tumor growth on preventive application [9] | IC50 ([10]; MDA-MB231 (breast), soft agar growth, incubation time 11 days, read-out: IC50) [µM] | Tumor volume (mean) [11, 18] [mm^3] | Tumor volume (mean) [11, 19] [mm^3] | Tumor volume (mean) [11, 20] [mm^3] | IC50 [6] [µM] | IC50 ([7]; A549, 192 h) [nM] | IC50 [10] [µM]
C[C@@H](O[C@H]1OCCN(Cc2nc(=O)[nH][nH]2)[C@H]1c1ccc(F)cc1)c1cc(C(F)(F)F)cc(C(F)(F)F)c1 [Aprepitant] | virtually water-insoluble | 60-65% | <20 | <20 | <20 | <20 | <20 | <20 | reduce brain tumor growth | 3.4 | 3600 | at least 3000 times | reduced growth of triple negative tumor cells | 17 | <20 | <20 | <20 |  |  | 
C[C@@H](O[C@H]1OCCN(Cc2nc(O)n(P(=O)(O)O)n2)[C@H]1c1ccc(F)cc1)c1cc(C(F)(F)F)cc(C(F)(F)F)c1 [Fosaprepitant] | water-soluble |  | <20 | <20 | <20 | <20 | <20 | <20 |  |  |  |  | reduced growth of triple negative tumor cells |  | <20 | <20 | <20 | 3 | 1700 | 36
